Data published in patent US20030059852A1, “Modulation of integrin-mediated signal transduction” (COR Therapeutics, Inc., priority 1995, published 2003).

Tests used:
platelets = assay: Platelet aggregation induced by agonists; assay type: cell-based, human
Procedure: (§1) Blood from healthy volunteers was collected into ⅙^th volume of 85 mM sodium citrate, 111 mM dextrose and 71 mM citric acid supplemented with 50 ng/ml PGI2 and 0.6 U/ml apyrase. After centrifugation of the blood at 160× g for 20 minutes the platelet rich plasma was removed and subjected to further centrifugation at 730× g for 10 minutes to sediment the platelets. Platelets were then resuspended in 13 mM trisodium citrate, 120 mM NaCl and 30 mM dextrose pH 7.0 and washed x 2 with this buffer. The platelets were then resuspended in 12 mM NaHCO3, 138 mM NaCl, 5.5 mM dextrose, 2.9 mM KCl, 10 mM Hepes, 1 mM CaCl2, 0.3 U/ml apyrase and allowed to recover for 1 hour at 37° C. Resting platelets were activated by the addition of 1 nM thrombin with stirring until aggregates were visible (1-3 minutes).
Additional experiments have been performed using a 2-D gel electrophoresis protocol and have yielded further information on the tyrosine phosphorylation of GPIIIa (FIG. 3). GPIIIa tyrosine phosphorylation can be observed in platelets induced to aggregate using agonists other than thrombin. […] In all cases platelet aggregation appears to be a prerequisite for GPIIIa tyrosine phosphorylation.

GP IIIa (β3) = assay: In vivo tyrosine phosphorylation of GPIIIa, 2-D gel electrophoresis and anti-phosphotyrosine immunoblotting; assay type: cell-based, human
Procedure: as §1, with “Resting platelets were activated by the addition of 1 nM thrombin with stirring until aggregates were visible (1-3 minutes).” left out
330 μl of 3× non-reducing sample buffer containing 1 mM sodium vanadate was added to 1 ml of control or thrombin-aggregated platelets. […] This membrane was then immunoblotted with anti-phosphotyrosine antibodies and the relative amount of phosphorylated GPIIIa was determined by densitometry for both control and thrombin-aggregated samples. […]
However, a three to six fold enhancement of phosphorylation of GPIIIa was observed when platelets were lysed in a high concentration of SDS and the proteins immediately separated by 2-D gel electrophoresis prior to transfer to a nitrocellulose membrane, and immunoblotting to detect phosphorylated proteins with phosphotyrosine antibodies and with a GPIIIa antibody to quantitate GPIIIa. […]

## Nc1ncnc2c1ncn2[C@@H]1O[C@H](COP(=O)(O)OP(=O)(O)O)[C@@H](O)[C@H]1O [ADP]
platelets
  platelet aggregation: does not induce platelet aggregation
platelets; platelets stimulated with the indicated agonist
  Aggregation: no
GP IIIa (β3); 2-D gel electrophoresis protocol
  GPIIIa tyrosine phosphorylation: no increase
GP IIIa (β3); platelets stimulated with the indicated agonist, 2-D gel, anti-phosphotyrosine immunoblotting
  β3 Phosphorylation: no
